Data reported in US4594345A, “Methylflavone-8-carboxylates” (Nippon Shinyaku Co. Ltd., priority 1982, dated 1986).

Columns and labels:
[1] = system: passive cutaneous anaphylaxis (PCA); experiment: Passive cutaneous anaphylaxis assay (PCA) in rats; type: in vivo, rat (Wister strain); details: Rattus norvegicus, po, 1 h, oral 10 mg/kg, one hour before antigen, read-out: PCA Inhibition Ratio %
Experimental: (§1) The effect of the compounds (I) of the present invention in the treatment of asthma and allergic diseases were evaluated by a passive cutaneous anaphylaxis assay (PCA) in rats and by measuring anti-SRS-A action using ileus of guinea pigs.
(i) Antiserum abundant in homocytotropic antibody is prepared by the same method as Tada and Okumura did (cf. Journal of Immunology, volume 106, page 1002, […]). Thus, one mg (calculated as an amount of protein) of DNP-As (2,4-dinitrophenyl-coupled ascaris extract) prepared by methods of Strejan and Campbell (Journal of Immunology, volume 98, page 893, 1971) and of Eisen (Journal of American Chemical Society, volume 85, page 4593, 1953) and […] pertussis vaccine are administered to each paw of Wister strain rats (180 to 200 grams body weights) by dividing the dose by four. Five days later, 0.5 mg of DNP-As is adminstered into muscle of back. Eight days later from the initial immunization, blood is taken from descending aorta under anesthetizing with ether, the resulting serum is stored at -80° C. and is melted before use.
(ii) Effect of tested compounds is investigated as follows:
Anti-serum obtained by the method (i) is diluted with physiological saline solution double by double successively and 0.05 ml of each diluted solution is administered into back of Wister strain rats (140 to 160 grams body weight) subcutaneously. After 72 hours, a solution of 2 mg (calculated as protein) of DNP-As and 2.5 mg of Evand Blue dissolved in 1 ml of physiological saline solution is administered intravenously at a dose of 5 ml/kg. After thirty minutes from antigen solution administration, the animals are killed and diameters of blue spots appeared at the place where antiserum is administered are measured. The PCA test is conducted by the same method as already described using a diluted solutions of antiserum which always show 10 mm or more of spot diameters and the effect of the test compounds is judged. Thus, antiserum diluted solutions are administered to two places in back. Test compounds are administered orally at the dose of 10 mg/kg one hour before administration of antigen solution. From the skin of reacted parts of killed animals, leaked or emitted dyestuff is extracted [cf. Baeck and Steinetz: J. Pharmacol. Exp. Ther., Vol. 131, page 400 (1961)] and the amount of the dyestuff is measured. The inhibition ratio is calculated by the following expression: [formula] in which R' is an amount of dyestuff in the group treated with the test compounds and A is that in the control group.

SRS-A = experiment: Anti-SRS-A action (SRS-A induced shrinkage of guinea pig ileus); set-up: species or system guinea pig (Hartley strain male); details: treated five minutes before SRS-A (20 units), 5 min; for SRS-A Inhibition Ratio % 10^-6 M: 1 µM; for SRS-A Inhibition Ratio % 10^-7 M: 0.1 µM
Experimental: as §1
Anti-SRS-A action (An anti-action against slow reacting substance of anaphylaxie)
Hartley strain male guinea pigs (300 to 350 grams body weight) are killed and 1.0 to 1.5 cm of ileus is immediately excised from ileocecal parts and is suspended in 10 ml of Tyrode solution (95% O2 -5% CO2 saturation) containing 10^-7 g/ml of atropine and 10^-6 g/ml of pyrilamine. SRS-A (20 units) (the amount of SRS-A showing the same shrinkage as 5 ng of histamine is defined as one unit) prepared by using sensitized guinea pig lung is given to cause shrinkage there. Then antagonistic action of test compounds treated five minutes ago against the shrinkage is measured and recorded via isotonic transducer. [formula] in which A' is a height of shrinkage of SRS-A + test compound and A is that of SRS-A.

carrageenin edema = experiment: Carrageenin edema in hind foot of rat (anti-inflammatory action); type: in vivo, rat (SD strain); set-up: concentration or dose not given beside the values; details: rats, oral one hour prior to carrageenin; foot volume three hours after
Experimental: Anti-inflammatory action was evaluated by measuring the effect of the compounds (I) in inhibiting carrageenin edema as illustrated below.
Carrageenin edema in hind foot of rat.
SD strain rats of about 150 grams body weight were used; each group consisted of five rats. Thus, 0.1 ml of 0.5% carrageenin solution in physiological saline water was hypodermically injected to the right hind foot of rat. The test compound was given orally to rats one hour prior to the above carrageenin treatment. Then the volume of the foot before and three hours after the carrageenin treatment was measured and the difference was compared with that of the control group.

male mice = experiment: Acute toxicity, oral, observed for two weeks; type: in vivo; details: oral 4000 mg/kg, dead/total
Experimental: Acute toxicity is observed for two weeks by oral adminsitration of 4000 mg/kg of the test compounds to male mice. One group consists of four mice. Numbers of dead mice are shown in numerators.

allergic asthma = details: cited from earlier work
mast cells = details: believed; cited from earlier work

SMILES | inhibition in vivo at 10 mg/kg [1] [%] | SRS-A Inhibition Ratio % 10^-6 M (SRS-A) [%] | SRS-A Inhibition Ratio % 10^-7 M (SRS-A) [%] | % Inhibition (carrageenin edema) (carrageenin edema) [%] | Lethal Ratio (male mice) | duration of action (allergic asthma; in vivo) | pharmaceutical effect by oral administration (allergic asthma; oral) | effect in allergic asthma (allergic asthma; reported by Cox, et al.) | inhibition of emission of chemical mediators (mast cells)
CCOc1ccccc1-c1oc2c(C(=O)OCCO)cccc2c(=O)c1C [Example 4, Beta-Hydroxyethyl 2'-ethoxy-3-methylflavone 8-carboxylate] | 20.5 | 67.2 | 42.4 | 33.9 | 0/4 | – | – | – | –
Cc1c(-c2ccccc2OC(C)C)oc2c(C(=O)O)cccc2c1=O [Example 20, 2'-isopropoxy-3-methylflavone-8-carboxylic acid] | 20.7 | 38.5 | 20.4 | 32.5 | – | – | – | – | –
CCN(CC)C(=O)c1cccc2c(=O)c(C)c(-c3ccccc3C)oc12 [Example 35, 2',3-dimethylflavone-8-carboxylic acid N,N-diethylamide] | 13.3 | 48.8 | 18.0 | 13.0 | – | – | – | – | –
CCN(CC)C(=O)c1cccc2c(=O)c(C)c(-c3ccc(C(C)C)cc3)oc12 [Example 48, 4'-isopropyl-3-methylflavone-8-carboxylic acid N,N-diethylamide] | 27.2 | 100 | 23.3 | 23.2 | 0/4 | – | – | – | –
Cc1c(-c2ccc(C(C)(C)C)cc2)oc2c(C(=O)O)cccc2c1=O [Example 55, 4'-tertiary butyl-3-methylflavone-8-carboxylic acid] | 20.3 | 100 | 21.1 | 19.1 | – | – | – | – | –
CCCCCc1ccc(-c2oc3c(C(=O)O)cccc3c(=O)c2C)cc1 [Example 58, 3-methyl-4'-n-pentylflavone-8-carboxylic acid] | 28.8 | 40.0 | 10.3 | 31.9 | 0/4 | – | – | – | –
O=C(O)c1cc(=O)c2c(OCC(O)COc3cccc4oc(C(=O)O)cc(=O)c34)cccc2o1 [sodium cromoglicate] | – | – | – | – | – | its action is of short duration | does not show any pharmaceutical effect by oral administration | effective for allergic asthma | inhibits emission of chemical mediators from mast cells
